Reference: PubChem BioAssay (NCI)
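Cultured in 96-well plates, cells were exposed to test compound for 48 hours across five concentrations. GI50 = concentration required for 50% inhibition of growth. TGI: total growth inhibition.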

How the values were obtained:
Experiment in all cases: inhibition of tumour cell growth, NCI panel, 48 h
HOP-62 NSCLC = tested on: HOP-62 NSCLC
BT-549 breast = tested on: BT-549 breast
UACC-257 melanoma = tested on: UACC-257 melanoma
SF-295 CNS = tested on: SF-295 CNS
NCI-H226 lung = tested on: NCI-H226 lung
NCI-H522 lung = tested on: NCI-H522 lung
HCT-15 colon = tested on: HCT-15 colon
CAKI-1 renal = tested on: CAKI-1 renal
DU-145 prostate = tested on: DU-145 prostate
SK-MEL-5 melanoma = tested on: SK-MEL-5 melanoma
SR leukemia = tested on: SR leukemia
CCRF-CEM leukemia = tested on: CCRF-CEM leukemia
SW-620 colon = tested on: SW-620 colon
OVCAR-3 ovarian = tested on: OVCAR-3 ovarian
M14 melanoma = tested on: M14 melanoma
SNB-19 CNS = tested on: SNB-19 CNS
SF-268 CNS = tested on: SF-268 CNS
K-562 leukemia = tested on: K-562 leukemia
RXF 393 renal = tested on: RXF 393 renal
MALME-3M melanoma = tested on: MALME-3M melanoma
SF-539 CNS = tested on: SF-539 CNS
HT29 colon = tested on: HT29 colon
U251 CNS = tested on: U251 CNS
HL-60(TB) leukemia = tested on: HL-60(TB) leukemia
MOLT-4 leukemia = tested on: MOLT-4 leukemia
OVCAR-5 ovarian = tested on: OVCAR-5 ovarian
A549 NSCLC = tested on: A549 NSCLC
SK-MEL-28 melanoma = tested on: SK-MEL-28 melanoma
NCI/ADR-RES ovarian = tested on: NCI/ADR-RES ovarian
ACHN renal = tested on: ACHN renal
LOX IMVI melanoma = tested on: LOX IMVI melanoma
RPMI-8226 leukemia = tested on: RPMI-8226 leukemia
SK-MEL-2 melanoma = tested on: SK-MEL-2 melanoma
786-0 renal = tested on: 786-0 renal
HS 578T breast = tested on: HS 578T breast
TK-10 renal = tested on: TK-10 renal
MDA-MB-231 breast = tested on: MDA-MB-231 breast
UO-31 renal = tested on: UO-31 renal
PC-3 prostate = tested on: PC-3 prostate
SN12C renal = tested on: SN12C renal
NCI-H23 lung = tested on: NCI-H23 lung
OVCAR-8 ovarian = tested on: OVCAR-8 ovarian
HOP-92 NSCLC = tested on: HOP-92 NSCLC
SK-OV-3 ovarian = tested on: SK-OV-3 ovarian
MCF7 breast = tested on: MCF7 breast
T-47D breast = tested on: T-47D breast
UACC-62 melanoma = tested on: UACC-62 melanoma
IGROV1 ovarian = tested on: IGROV1 ovarian
SNB-75 CNS = tested on: SNB-75 CNS
NCI-H460 lung = tested on: NCI-H460 lung
HCT-116 colon = tested on: HCT-116 colon
KM12 colon = tested on: KM12 colon
OVCAR-4 ovarian = tested on: OVCAR-4 ovarian
EKVX NSCLC = tested on: EKVX NSCLC
HCC-2998 colon = tested on: HCC-2998 colon
COLO 205 colon = tested on: COLO 205 colon
A498 renal = tested on: A498 renal
MDA-MB-435 = tested on: MDA-MB-435

With `Cc1c(Cl)cccc1C(=O)Nc1nc2c(s1)CN(C(=O)Nc1cccc(C(F)(F)F)c1)CC2` the GI50 (HOP-62 NSCLC) was 278 nM, the TGI (HOP-62 NSCLC) was greater than 50000 nM and the GI50 (BT-549 breast) was 547 nM. The TGI (BT-549 breast) was greater than 50000 nM, the GI50 (UACC-257 melanoma) was 2210 nM and the TGI (UACC-257 melanoma) was greater than 50000 nM. The GI50 (SF-295 CNS) was 125 nM, the TGI (SF-295 CNS) was greater than 41600 nM and the GI50 (NCI-H226 lung) was 213 nM. The TGI (NCI-H226 lung) was 7650 nM, the GI50 (NCI-H522 lung) was 109 nM and the GI50 (HCT-15 colon) was 129 nM. The TGI (HCT-15 colon) was greater than 50000 nM, the GI50 (CAKI-1 renal) was 216 nM and the TGI (CAKI-1 renal) was greater than 50000 nM. For the same molecule, the GI50 (DU-145 prostate) was 204 nM, the TGI (DU-145 prostate) was greater than 50000 nM and the GI50 (SK-MEL-5 melanoma) was 182 nM. The TGI (SK-MEL-5 melanoma) was 3750 nM, the GI50 (SR leukemia) was 78.9 nM and the TGI (SR leukemia) was greater than 50000 nM. For the same molecule, the GI50 (CCRF-CEM leukemia) was 194 nM, the TGI (CCRF-CEM leukemia) was greater than 50000 nM and the GI50 (SW-620 colon) was 175 nM. The TGI (SW-620 colon) was greater than 50000 nM, the GI50 (OVCAR-3 ovarian) was 140 nM and the TGI (OVCAR-3 ovarian) was 539 nM. The GI50 (M14 melanoma) was 167 nM, the TGI (M14 melanoma) was greater than 50000 nM and the GI50 (SNB-19 CNS) was 307 nM. The TGI (SNB-19 CNS) was greater than 50000 nM, the GI50 (SF-268 CNS) was 467 nM and the TGI (SF-268 CNS) was greater than 50000 nM. For the same molecule, the GI50 (K-562 leukemia) was 131 nM, the TGI (K-562 leukemia) was greater than 50000 nM and the GI50 (RXF 393 renal) was 106 nM. The TGI (RXF 393 renal) was 349 nM, the GI50 (MALME-3M melanoma) was 356 nM and the TGI (MALME-3M melanoma) was greater than 50000 nM. It also gave a GI50 (SF-539 CNS) of 155 nM, a TGI (SF-539 CNS) of 885 nM and a GI50 (HT29 colon) of 173 nM. The TGI (HT29 colon) was greater than 23300 nM, the GI50 (U251 CNS) was 242 nM and the TGI (U251 CNS) was greater than 50000 nM. The GI50 (HL-60(TB) leukemia) was 149 nM, the GI50 (MOLT-4 leukemia) was 291 nM and the TGI (MOLT-4 leukemia) was greater than 50000 nM. It also gave a GI50 (OVCAR-5 ovarian) of 603 nM, a TGI (OVCAR-5 ovarian) greater than 50000 nM and a GI50 (A549 NSCLC) of 330 nM. For the same molecule, the TGI (A549 NSCLC) was greater than 50000 nM, the GI50 (SK-MEL-28 melanoma) was 985 nM and the TGI (SK-MEL-28 melanoma) was greater than 50000 nM. It also gave a GI50 (NCI/ADR-RES ovarian) of 140 nM, a TGI (NCI/ADR-RES ovarian) of 1010 nM and a GI50 (ACHN renal) of 326 nM. It also gave a GI50 (LOX IMVI melanoma) of 226 nM, a TGI (LOX IMVI melanoma) of 11000 nM and a GI50 (RPMI-8226 leukemia) of 202 nM. For the same molecule, the TGI (RPMI-8226 leukemia) was greater than 39200 nM, the GI50 (SK-MEL-2 melanoma) was 283 nM and the TGI (SK-MEL-2 melanoma) was greater than 50000 nM. For the same molecule, the GI50 (786-0 renal) was 254 nM, the TGI (786-0 renal) was greater than 25300 nM and the GI50 (HS 578T breast) was 163 nM. The TGI (HS 578T breast) was greater than 50000 nM, the GI50 (TK-10 renal) was 1560 nM and the TGI (TK-10 renal) was greater than 50000 nM. It also gave a GI50 (MDA-MB-231 breast) of 590 nM, a TGI (MDA-MB-231 breast) greater than 35600 nM and a GI50 (UO-31 renal) of 508 nM. For the same molecule, the TGI (UO-31 renal) was greater than 50000 nM, the GI50 (PC-3 prostate) was 143 nM and the TGI (PC-3 prostate) was greater than 50000 nM. For the same molecule, the GI50 (SN12C renal) was 334 nM, the TGI (SN12C renal) was greater than 50000 nM and the GI50 (NCI-H23 lung) was 234 nM. For the same molecule, the TGI (NCI-H23 lung) was greater than 50000 nM, the GI50 (OVCAR-8 ovarian) was 277 nM and the TGI (OVCAR-8 ovarian) was greater than 50000 nM. It also gave a GI50 (HOP-92 NSCLC) of 180 nM, a TGI (HOP-92 NSCLC) of 15600 nM and a GI50 (SK-OV-3 ovarian) of 215 nM. It also gave a TGI (SK-OV-3 ovarian) greater than 50000 nM, a GI50 (MCF7 breast) of 145 nM and a TGI (MCF7 breast) greater than 50000 nM. It also gave a GI50 (T-47D breast) of 239 nM, a TGI (T-47D breast) greater than 50000 nM and a GI50 (UACC-62 melanoma) of 366 nM. For the same molecule, the TGI (UACC-62 melanoma) was greater than 50000 nM, the GI50 (IGROV1 ovarian) was 290 nM and the TGI (IGROV1 ovarian) was greater than 50000 nM. The GI50 (SNB-75 CNS) was 104 nM, the TGI (SNB-75 CNS) was 3520 nM and the GI50 (NCI-H460 lung) was 182 nM. The TGI (NCI-H460 lung) was greater than 17400 nM, the GI50 (HCT-116 colon) was 212 nM and the TGI (HCT-116 colon) was greater than 50000 nM. The GI50 (KM12 colon) was 174 nM, the TGI (KM12 colon) was greater than 21700 nM and the GI50 (OVCAR-4 ovarian) was 1450 nM. For the same molecule, the TGI (OVCAR-4 ovarian) was greater than 50000 nM, the GI50 (EKVX NSCLC) was 346 nM and the TGI (EKVX NSCLC) was greater than 50000 nM. It also gave a GI50 (HCC-2998 colon) of 647 nM, a TGI (HCC-2998 colon) of 8520 nM and a GI50 (COLO 205 colon) of 174 nM. For the same molecule, the TGI (COLO 205 colon) was 4360 nM.

With `OCC(O)COCn1cc(Cn2ncc3c(SCc4ccccc4)ncnc32)nn1` (stereo unspecified) the TGI (HOP-62 NSCLC) was greater than 100000 nM, the TGI (BT-549 breast) was greater than 100000 nM and the TGI (UACC-257 melanoma) was greater than 100000 nM. For the same molecule, the TGI (SF-295 CNS) was greater than 100000 nM, the TGI (NCI-H226 lung) was greater than 100000 nM and the TGI (NCI-H522 lung) was 73000 nM. For the same molecule, the TGI (HCT-15 colon) was greater than 100000 nM, the TGI (CAKI-1 renal) was greater than 100000 nM and the TGI (DU-145 prostate) was greater than 100000 nM. For the same molecule, the TGI (SK-MEL-5 melanoma) was greater than 100000 nM, the TGI (CCRF-CEM leukemia) was greater than 100000 nM and the TGI (A498 renal) was greater than 100000 nM. The TGI (SW-620 colon) was greater than 100000 nM, the TGI (OVCAR-3 ovarian) was greater than 100000 nM and the TGI (M14 melanoma) was greater than 100000 nM. For the same molecule, the TGI (SNB-19 CNS) was greater than 100000 nM, the TGI (SF-268 CNS) was greater than 100000 nM and the TGI (K-562 leukemia) was greater than 100000 nM. The TGI (SF-539 CNS) was greater than 100000 nM, the TGI (HT29 colon) was greater than 100000 nM and the TGI (U251 CNS) was greater than 100000 nM. It also gave a TGI (HL-60(TB) leukemia) greater than 100000 nM, a TGI (MOLT-4 leukemia) greater than 100000 nM and a TGI (OVCAR-5 ovarian) greater than 100000 nM. It also gave a TGI (MDA-MB-435) greater than 100000 nM, a TGI (A549 NSCLC) greater than 100000 nM and a TGI (SK-MEL-28 melanoma) greater than 100000 nM. It also gave a TGI (NCI/ADR-RES ovarian) greater than 100000 nM, a TGI (ACHN renal) greater than 100000 nM and a TGI (LOX IMVI melanoma) greater than 100000 nM. For the same molecule, the TGI (RPMI-8226 leukemia) was greater than 100000 nM, the TGI (SK-MEL-2 melanoma) was greater than 100000 nM and the TGI (786-0 renal) was greater than 100000 nM. The TGI (TK-10 renal) was greater than 100000 nM, the TGI (MDA-MB-231 breast) was greater than 100000 nM and the TGI (UO-31 renal) was greater than 100000 nM. It also gave a TGI (PC-3 prostate) greater than 100000 nM, a TGI (SN12C renal) greater than 100000 nM and a TGI (NCI-H23 lung) greater than 100000 nM. The TGI (OVCAR-8 ovarian) was greater than 100000 nM, the TGI (HOP-92 NSCLC) was greater than 100000 nM and the TGI (SK-OV-3 ovarian) was greater than 100000 nM. For the same molecule, the TGI (MCF7 breast) was greater than 100000 nM, the TGI (T-47D breast) was greater than 100000 nM and the TGI (UACC-62 melanoma) was greater than 100000 nM. It also gave a TGI (IGROV1 ovarian) greater than 100000 nM, a TGI (HCT-116 colon) greater than 100000 nM and a TGI (KM12 colon) greater than 100000 nM. It also gave a TGI (OVCAR-4 ovarian) greater than 100000 nM, a TGI (EKVX NSCLC) greater than 100000 nM and a TGI (HCC-2998 colon) greater than 100000 nM. For the same molecule, the TGI (COLO 205 colon) was greater than 100000 nM.
